For twelve molecules, IC50 and GI50 results are on record in patent US20240368192A1, “Nitrogen-Containing Heterocyclic Compound, and Preparation Method Therefor, Intermediate Thereof, and Application Thereof” (Shanghai Allist Pharmaceuticals Co., Ltd., priority 2021, published 2024).

Counter-ions that a name gives are not always drawn. Like-named read-outs stand apart in the source and are kept apart here.

One assay deals with AGS cells. The experiment in a line: Proliferation inhibitory activity on AGS tumor cell line containing KRAS G12D mutation (CellTiter-Glo, 72 hours). The assay is classed as cell-based. The source says:
(§1) Test Example 1: Proliferation Inhibitory Activity on Ba/F3 KRAS-G12D, Ba/F3 KRAS-G12V Stably Transfected Cell Lines and AGS Tumor Cell Lines Containing KRAS G12D Mutations
(§2) To determine the proliferation inhibitory activity of the compounds in vitro on mouse pro-B cells Ba/F3 (Ba/F3 KRAS-G12D and Ba/F3 KRAS-G12V cells stably expressing KRAS G12D/V mutant proteins) and gastric cancer AGS cells expressing KRAS G12D mutant protein.
(§3) Cell sources. Ba/F3 KRAS-G12D and Ba/F3 KRAS-G12V were purchased from Kyinno Biotech (Beijing) Co., Ltd, Cat. No.: KC-1259 and KC-1261, respectively; AGS was purchased from Shanghai Bioleaf Biotech Co., Ltd.
(§4) Cells in the logarithmic growth phase were seeded in a 96-well plate (8000, 8000, 4000 cells/well, 90 μL/well for Ba/F3 KRAS-G12D, Ba/F3 KRAS-G12V, and AGS cells respectively), incubated at 37° C. for 1 day with 5% CO2, and then a gradient dilution of the test compound was added thereto (compounds 1 to 28 and comparative compounds). The details were as follows, the compound stock solution (10 mM) previously dissolved in DMSO was diluted to 10 gradient concentrations at a fold ratio (4 fold) and diluted to 10 fold of the target concentration in another 96-well plate with culture medium, and then 10 μL/well of the compound solution was added to the 96-well plate seeded with cells to reach the target concentration (10000, 2500, 625, 156, 39, 10, 2.5, 0.6, 0.15, 0.04 nM). Each concentration was provided with 3 duplicate wells and a blank control. After continued incubation at 37° C. and 5% CO2 for 72 hours, 50 μL of CellTiter-Glo*2.0 reagent (luciferase ATP bioluminescence detection reagent, purchased from Promega, Cat. No.: G9243) was added to each well, shaken for 2 minutes, and incubated at room temperature for 8 minutes, and then fluorescence luminescence intensity was detected (light collection time was 100 ms). The inhibitory rate of compounds with various concentrations on cell proliferation was calculated. Cell proliferation inhibition rate (%)=[(luminous intensitycontrol group containing cell culture medium for 72 hour−luminous intensitycompound group for 72 hour)/(luminous intensitycontrol group containing cell culture medium for 72 hours−luminous intensitycontrol group without cell culture medium for 72 hour)]×100%. GraphPad Prism 8.3 software was used to analyze the data, and nonlinear S-curve regression was used to fit the data to obtain a dose-effect curve, from which the IC50 value was calculated.

The target in another assay is Ba/F3 KRAS-G12D cells (Homo sapiens, UniProt P01116, G12D, cells depend on it). In words: Proliferation inhibitory activity on Ba/F3 KRAS-G12D stably transfected cell line (CellTiter-Glo, 72 hours). The following applies: read-out: Ba/F3 KRAS-G12D IC50. The format is cell-based, mouse.
From the text: as §1, §2, §3, §4
For orientation: ATP-based viability assays read luminescence as a measure of living cells.

For a further assay, the target named is Ba/F3 KRAS-G12V cells (Homo sapiens, UniProt P01116, G12V, cells depend on it). In words: Proliferation inhibitory activity on Ba/F3 KRAS-G12V stably transfected cell line (CellTiter-Glo, 72 hours). The assay is classed as cell-based, mouse. The note with it: read-out: Ba/F3 KRAS-G12V IC50.
From the text: as §1, §2, §3, §4

Sequence of Ba/F3 KRAS-G12V cells (P01116 whole entry G12V): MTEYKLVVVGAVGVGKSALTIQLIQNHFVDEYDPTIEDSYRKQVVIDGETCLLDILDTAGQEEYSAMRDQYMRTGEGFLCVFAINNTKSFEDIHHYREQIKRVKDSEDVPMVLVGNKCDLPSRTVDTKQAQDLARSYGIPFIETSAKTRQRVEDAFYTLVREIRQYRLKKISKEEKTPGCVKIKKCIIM
Sequence of Ba/F3 KRAS-G12D cells (P01116 whole entry G12D): as the sequence (P01116 whole entry G12V) above, with V12D counted along it

As a reminder, the IC50 is the point on the concentration scale where inhibition reaches its midpoint. Regarding `C#Cc1c(F)ccc2cc(O)cc(-c3ncc4c(N5CCC(N)C(F)(F)C5)nc(OC[C@@]56CCCN5C[C@H](F)C6)nc4c3F)c12` (single isomer, unassigned) [Compound 20-P1], the IC50 in the assay with AGS cells (Homo sapiens) was 0.1 to 5 µM. Further, the GI50 at Ba/F3 KRAS-G12D cells is at most 0.1 µM; on Ba/F3 KRAS-G12V cells it was 5 to 10 µM.

As for `C#Cc1c(F)ccc2cc(O)cc(-c3ncc4c(N5CCC(N)C(F)(F)C5)nc(OC[C@@]56CCCN5C[C@H](F)C6)nc4c3F)c12` (single isomer, unassigned) [Compound 20-P2], the IC50 in the assay with AGS cells was 0.1 to 5 µM. The values for the GI50 at Ba/F3 KRAS-G12D cells and at Ba/F3 KRAS-G12V cells were 0.1 to 5 µM and 5 to 10 µM, respectively.

On to `C#Cc1c(F)ccc2cc(O)cc(-c3ncc4c(N5C[C@H](N)CC(F)(F)C5)nc(OC[C@@]56CCCN5C[C@H](F)C6)nc4c3F)c12` [Compound 6-P1, 4-(4-((R)-5-Amino-3,3-difluoropiperidin-1-yl)-8-fluoro-2-(((2R,7aS)-2-fluorotetrahydro-1H-pyrrolizin-7a(5H)-yl)methoxy)pyrido[4,3-d]pyrimidin-7-yl)-5-ethynyl-6-fluoronaphthalen-2-ol], for which the IC50 in the assay with AGS cells (Homo sapiens) is 5 to 10 µM. The figures for the GI50 on Ba/F3 KRAS-G12D cells and on Ba/F3 KRAS-G12V cells were 0.1 to 5 µM and 5 to 10 µM, respectively.

Molecule `C#Cc1c(F)ccc2cc(O)cc(-c3ncc4c(N5C[C@@H](N)CC(F)(F)C5)nc(OC[C@@]56CCCN5C[C@H](F)C6)nc4c3F)c12` [Compound 6-P2, 4-(4-((S)-5-amino-3,3-difluoropiperidin-1-yl)-8-fluoro-2-(((2R,7aS)-2-fluorotetrahydro-1H-pyrrolizin-7a(5H)-yl)methoxy)pyrido[4,3-d]pyrimidin-7-yl)-5-ethynyl-6-fluoronaphthalen-2-ol] displayed an IC50 in the assay with AGS cells (Homo sapiens) of 0.1 to 5 µM. The results for the GI50 on Ba/F3 KRAS-G12D cells and at Ba/F3 KRAS-G12V cells were at most 0.1 µM and 5 to 10 µM, respectively.

`C#Cc1c(F)ccc2cc(O)cc(-c3ncc4c(N5C[C@H]6C[C@@]6(N)C5)nc(OC[C@@]56CCCN5C[C@H](F)C6)nc4c3F)c12` [Compound 10, 4-(4-((1S,5R)-1-Amino-3-azabicyclo[3.1.0]hexan-3-yl)-8-fluoro-2-(((2R,7aS)-2-fluorohexahydro-1H-pyrrolizin-7a-yl)methoxy)pyrido[4,3-d]pyrimidin-7-yl)-5-ethynyl-6-fluoronaphthalen-2-ol bis(2,2,2-trifluoroacetate)]: the concentration for half-maximal inhibition (IC50) in the assay with AGS cells (Homo sapiens) lay within 0.1 to 5 µM. Further, the GI50 on Ba/F3 KRAS-G12D cells fell in the range of 0.1 to 5 µM; at Ba/F3 KRAS-G12V cells, 5 to 10 µM.

As to `Cc1cc(N)nc(-c2nc(Cl)c3c(N4C[C@H]5CC[C@@H](C4)N5)nc(OC[C@@]45CCCN4C[C@H](F)C5)nc3c2F)c1C(F)(F)F` [Compound 17, 6-(4-((1R,5S)-3,8-Diazabicyclo[3.2.1]octan-3-yl)-5-chloro-8-fluoro-2-(((2R,7aS)-2-fluorohexahydro-1H-pyrrolizin-7a-yl)methoxy)pyrido[4,3-d]pyrimidin-7-yl)-4-methyl-5-(trifluoromethyl)pyridin-2-amine bis(2,2,2-trifluoroacetate)], the half-inhibitory concentration (IC50) in the assay on AGS cells (Homo sapiens) lay in the range of 5 to 10 µM. The GI50 at Ba/F3 KRAS-G12D cells lay in the range of 0.1 to 5 µM; at Ba/F3 KRAS-G12V cells, 5 to 10 µM.

In turn, `Cc1cc(N)nc(-c2nc(F)c3c(N4C[C@H]5CC[C@@H](C4)N5)nc(OC[C@@]45CCCN4C[C@H](F)C5)nc3c2F)c1C(F)(F)F` [Compound 18, 6-(4-((1R,5S)-3,8-Diazabicyclo[3.2.1]octan-3-yl)-5,8-difluoro-2-(((2R,7aS)-2-fluorohexahydro-1H-pyrrolizin-7a-yl)methoxy)pyrido[4,3-d]pyrimidin-7-yl)-4-methyl-5-(trifluoromethyl)pyridin-2-amine bis(2,2,2-trifluoroacetate)] yielded an IC50 in the assay on AGS cells (Homo sapiens) of 5 to 10 µM. For the same molecule, the GI50 is 0.1 to 5 µM at Ba/F3 KRAS-G12D cells and 5 to 10 µM at Ba/F3 KRAS-G12V cells.

`C#Cc1c(F)ccc2cc(O)cc(-c3nc(F)c4c(N5C[C@H]6CC[C@@H](C5)N6)nc(OC[C@@]56CCCN5C[C@H](F)C6)nc4c3F)c12` [Compound 22, 4-(4-((1R,5S)-3,8-Diazabicyclo[3.2.1]octan-3-yl)-5,8-difluoro-2-(((2R,7aS)-2-fluorohexahydro-1H-pyrrolizin-7a-yl)methoxy)pyrido[4,3-d]pyrimidin-7-yl)-5-ethynyl-6-fluoronaphthalen-2-ol]: inhibition in the assay on AGS cells (Homo sapiens) was half-maximal at 0.016 µM (IC50). For the same molecule, the GI50 on Ba/F3 KRAS-G12D cells is 0.002 µM; on Ba/F3 KRAS-G12V cells, 5 to 10 µM.

As for `C#Cc1c(F)ccc2cc(O)cc(-c3ncc4c(N5[C@H]6CC[C@@H]5[C@@H](F)[C@H](N)C6)nc(OC[C@@]56CCCN5C[C@H](F)C6)nc4c3F)c12` [Compound 24, 4-4-(4-((1R,2S,3R,5S)-3-Amino-2-fluoro-8-azabicyclo[3.2.1]octan-8-yl)-8-fluoro-2-(((2R,7aS)-2-fluorohexahydro-1H-pyrrolizin-7a-yl)methoxy)pyrido[4,3-d]pyrimidin-7-yl)-5-ethynyl-6-fluoronaphthalen-2-ol], half-maximal inhibition with AGS cells (Homo sapiens) (IC50) was put at 2.5 µM. In addition, the GI50 was 1.9 µM at Ba/F3 KRAS-G12D cells and 5 to 10 µM on Ba/F3 KRAS-G12V cells.

In turn, `C#Cc1c(F)ccc2cc(O)cc(-c3ncc4c(N5[C@@H]6CC[C@H]5[C@H](F)[C@@H](N)C6)nc(OC[C@@]56CCCN5C[C@H](F)C6)nc4c3F)c12` [Compound 25, 4-(4-((1S,2R,3S,5R)-3-Amino-2-fluoro-8-azabicyclo[3.2.1]octan-8-yl)-8-fluoro-2-(((2R,7aS)-2-fluorohexahydro-1H-pyrrolizin-7a-yl)methoxy)pyrido[4,3-d]pyrimidin-7-yl)-5-ethynyl-6-fluoronaphthalen-2-ol] yielded a concentration for half-maximal inhibition (IC50) with AGS cells (Homo sapiens) of 2.5 µM. Further, the GI50 at Ba/F3 KRAS-G12D cells was 1 µM; on Ba/F3 KRAS-G12V cells, 5 to 10 µM.

In the assay with AGS cells (Homo sapiens), `Oc1cc(-c2nc(Cl)c3c(N4C[C@H]5CC[C@@H](C4)N5)nc(OC[C@@]45CCCN4C[C@H](F)C5)nc3c2F)c2c(F)c(F)ccc2c1` [Compound 26, 4-(4-((1R,5S)-3,8-diazabicyclo[3.2.1]octan-3-yl)-5-chloro-8-fluoro-2-(((2R,7aS)-2-fluorohexahydro-1H-pyrrolizin-7a-yl)methoxy)pyrido[4,3-d]pyrimidin-7-yl)-5,6-difluoronaphthalen-2-ol] returned an IC50 of 0.028 µM. In addition, the GI50 on Ba/F3 KRAS-G12D cells was 0.0017 µM; on Ba/F3 KRAS-G12V cells it was 5 to 10 µM.

For `[2H]C#Cc1c(F)ccc2cc(O)cc(-c3nc(Cl)c4c(N5C[C@H]6CC[C@@H](C5)N6)nc(OC[C@@]56CCCN5C[C@H](F)C6)nc4c3F)c12` [Compound 28, 4-(4-((1R,5S)-3,8-Diazabicyclo[3.2.1]octan-3-yl)-5-chloro-8-fluoro-2-(((2R,7aS)-2-fluorotetrahydro-1H-pyrrolizin-7a(5H)-yl)methoxy)pyrido[4,3-d]pyrimidin-7-yl)-5-(ethynyl-d)-6-fluoronaphthalen-2-ol hydrochloride], in the assay on AGS cells (Homo sapiens), the half-maximal inhibitory concentration (IC50) is 0.006 µM. For the same molecule, the GI50 at Ba/F3 KRAS-G12D cells is 0.001 µM.
